Measurements taken from paper PMC3003779 (Chemistry & biology, 2010).
Where two headings read alike, the source gives them in different places.

Experiments:
human recombinant FAAH = target: T1, human recombinant FAAH (Homo sapiens, UniProt O00519); assay: biochemical; settings: in vitro
T1 sequence (O00519 1-579): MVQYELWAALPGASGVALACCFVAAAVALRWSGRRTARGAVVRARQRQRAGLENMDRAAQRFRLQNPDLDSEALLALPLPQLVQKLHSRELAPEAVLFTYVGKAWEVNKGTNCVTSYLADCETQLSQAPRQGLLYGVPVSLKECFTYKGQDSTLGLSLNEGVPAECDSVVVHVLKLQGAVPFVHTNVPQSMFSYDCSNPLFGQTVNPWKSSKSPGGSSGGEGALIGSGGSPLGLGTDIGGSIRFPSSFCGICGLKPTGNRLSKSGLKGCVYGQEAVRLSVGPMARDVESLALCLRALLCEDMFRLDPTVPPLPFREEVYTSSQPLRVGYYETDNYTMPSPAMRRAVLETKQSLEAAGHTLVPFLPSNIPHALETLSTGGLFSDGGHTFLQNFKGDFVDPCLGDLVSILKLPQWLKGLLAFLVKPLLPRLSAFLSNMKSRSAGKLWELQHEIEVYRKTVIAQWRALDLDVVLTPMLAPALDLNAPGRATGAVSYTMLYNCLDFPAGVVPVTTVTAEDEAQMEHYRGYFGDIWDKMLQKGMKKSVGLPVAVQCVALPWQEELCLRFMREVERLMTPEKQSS

SHR and WKY rats [1] = assay: mean arterial pressure and heart rate in anesthetized rats; type: in vivo, rat; settings: for hypotensive effect: 0.3 mg/kg
[2] = tested on: anandamide levels in hepatocytes; assay: anandamide levels in hepatocytes; type: cell-based, mouse; settings: 100 nM, dense suspension 40 mg/mL
FAAH [3] = target: T2, FAAH (Mus musculus, UniProt O08914); assay: FAAH activity in brain and liver homogenates, drug added in vitro; type: biochemical
T2 sequence (O08914 1-579): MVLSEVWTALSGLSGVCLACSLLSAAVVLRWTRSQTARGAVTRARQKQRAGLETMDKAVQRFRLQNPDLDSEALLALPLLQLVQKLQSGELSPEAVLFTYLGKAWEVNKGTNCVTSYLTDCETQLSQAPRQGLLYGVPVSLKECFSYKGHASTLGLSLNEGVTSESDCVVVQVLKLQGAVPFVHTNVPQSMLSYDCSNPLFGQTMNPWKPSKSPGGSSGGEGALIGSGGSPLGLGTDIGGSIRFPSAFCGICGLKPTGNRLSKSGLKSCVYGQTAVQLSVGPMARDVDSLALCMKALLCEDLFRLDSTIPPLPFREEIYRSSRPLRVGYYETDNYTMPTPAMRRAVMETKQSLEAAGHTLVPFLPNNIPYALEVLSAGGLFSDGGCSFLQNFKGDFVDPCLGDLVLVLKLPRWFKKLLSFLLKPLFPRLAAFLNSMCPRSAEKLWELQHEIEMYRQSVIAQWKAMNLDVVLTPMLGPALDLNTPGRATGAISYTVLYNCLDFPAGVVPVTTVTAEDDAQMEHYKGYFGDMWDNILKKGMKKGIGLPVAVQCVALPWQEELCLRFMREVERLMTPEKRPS

FAAH [4] = target: T2, FAAH; assay: in vivo; type: in vivo; settings: mouse
[5] = tested on: mice with diet-induced obesity; assay: intraperitoneal glucose tolerance test in mice on high-fat diet; type: in vivo, mouse
Mouse hepatocytes = assay: drug levels in hepatocyte suspensions by LC/MS/MS
FAAH [6] = target: T2, FAAH; type: cell-based
SHR and WKY rats [7] = assay: non-fasting blood glucose in rats; settings: 10 mg/kg i.p.
CB1 receptor = CB1 receptor (Rattus norvegicus, UniProt P20272); assay: HU210-stimulated [35S]GTPγS binding in brain membranes; type: biochemical; settings: brain membrane preparations, SHR vs WKY
CB1 receptor, sequence (P20272 whole entry): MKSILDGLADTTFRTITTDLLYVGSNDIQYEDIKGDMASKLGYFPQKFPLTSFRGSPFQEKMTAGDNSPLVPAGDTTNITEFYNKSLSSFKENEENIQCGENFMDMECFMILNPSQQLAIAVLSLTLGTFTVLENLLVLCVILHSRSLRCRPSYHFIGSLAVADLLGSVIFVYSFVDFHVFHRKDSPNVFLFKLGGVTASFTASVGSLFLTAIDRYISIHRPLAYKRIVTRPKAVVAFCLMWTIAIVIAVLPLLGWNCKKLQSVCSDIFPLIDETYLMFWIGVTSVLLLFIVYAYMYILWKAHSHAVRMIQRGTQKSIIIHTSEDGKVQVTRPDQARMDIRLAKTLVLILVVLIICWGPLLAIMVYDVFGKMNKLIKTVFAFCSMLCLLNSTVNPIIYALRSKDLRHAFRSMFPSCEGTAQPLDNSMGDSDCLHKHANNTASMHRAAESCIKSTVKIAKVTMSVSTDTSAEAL

O=S(=O)(F)Cc1ccccc1 [PMSF, phenyl methyl sulfonyl fluoride, reference compound]
potency against human recombinant FAAH relative to AM3506 and URB597 (human recombinant FAAH): 3 orders of magnitude less potent

Cc1c(C(=O)NN2CCCCC2)nn(-c2ccc(Cl)cc2Cl)c1-c1ccc(I)cc1 [AM251]
effect on the effects of HU210 (SHR and WKY rats [1]; SHR and WKY): abolished | effect of pretreatment on the MAP and HR effects of AM3506 (SHR and WKY rats [1]; SHR, 3 mg/kg i.p. 60 min before 1 mg/kg AM3506 i.v.): prevented | acute reversal of the fully developed effects of AM3506 (SHR and WKY rats [1]; SHR, 3 mg/kg i.v. at the peak hypotensive response to 1 mg/kg AM3506): acutely reversed

Cc1c(C(=O)NN2CCCCC2)nn(-c2ccc(Cl)cc2Cl)c1-c1ccc(Cl)cc1 [rimonabant]
ΔHR, acute reversal of AM3506 effect (SHR and WKY rats [1]; SHR, 3 mg/kg, after AM3506): +129±14 bpm | ΔMBP, acute reversal of AM3506 effect (SHR and WKY rats [1]; SHR, 3 mg/kg, after AM3506): +101±9 mmHg

CCCCCOc1ccc(C(=O)c2cccc3ccccc23)c2ccccc12 [CB13]
hypotensive effect (SHR and WKY rats [1]; SHR): −40±6 mmHg | hypotensive effect (SHR and WKY rats [1]; WKY): −36±10 mmHg

NC(=O)c1cccc(-c2cccc(OC(=O)NC3CCCCC3)c2)c1 [URB597, reference compound]
anandamide levels in hepatocytes [2]: markedly increased | FAAH activity in tissue homogenates (FAAH [3]): equally effective in blocking FAAH activity in brain and liver | suppression of FAAH activity in brain (FAAH [4]; in vivo, po, 10 mg/kg): 86±2% | suppression of FAAH activity in liver (FAAH [4]; in vivo, po, 10 mg/kg): 83±0.5% | ED50 (FAAH [4]; read-out: ID50, inhibition of brain FAAH activity): 0.22 mg/kg | ED50 (FAAH [4]; read-out: ID50, inhibition of liver FAAH activity): 0.45 mg/kg | hypotensive/bradycardic potency, times less potent than AM3506 (SHR and WKY rats [1]; anesthetized SHR): ~ 40 times | ipGTT area under the curve (AUC) ([5]; liver-specific CB1 knockout (LCB1−/−) mice on HFD, vehicle 322±37): 337 ± 14 mg·h/dL | effect on glucose tolerance ([5]; liver-specific CB1−/− mice on HFD, 1.38 mg/kg): failed to affect glucose tolerance | effect on glucose tolerance ([5]; liver-specific CB1−/− mice on HFD, 10 mg/kg): remained ineffective | effect on glucose tolerance ([5]; male DIO mice, 1.38 mg/kg): marked increase in glucose intolerance | ipGTT area under the curve (AUC) ([5]; male DIO mice, 1.38 mg/kg i.p. 60 min before glucose, vehicle 352±28): 570 ± 45 mg·h/dL | effect on glucose tolerance ([5]; wild-type mice on HFD, 10 mg/kg, compared with the lower dose): same degree of glucose intolerance | recovery of drug from cell-free medium (Mouse hepatocytes; 0 to 30 min, no hepatocytes): remained constant | drug level in cell pellets, dense hepatocyte suspension (Mouse hepatocytes; 100 nM, 40 mg/mL): gradually declined over 10 min | drug level in medium, dense hepatocyte suspension (Mouse hepatocytes; 100 nM, 40 mg/mL): rapidly depleted from the medium | free drug (parent ion) still present in cell-free supernatant (Mouse hepatocytes; dilute hepatocyte suspension 1 mg/mL, 100 nM, 10 min, % of drug added at 0 min): 50–55% | FAAH activity in cell pellet, dilute hepatocyte suspension (FAAH [6]): nearly completely blocked | FAAH activity in cells, dense hepatocyte suspension (FAAH [6]): rapidly and nearly completely blocked | non-fasting blood glucose after treatment (SHR and WKY rats [7]; SHR, from 104.0±7.4): 144.0 ± 9.6 mg/dL | non-fasting blood glucose after treatment (SHR and WKY rats [7]; WKY, from 90.0±7.2): 135.3 ± 12.9 mg/dL

CCCCCCC(C)(C)c1cc(O)c2c(c1)OC(C)(C)[C@@H]1CC=C(CO)C[C@@H]21 [HU210]
hypotension, SHR compared with WKY (SHR and WKY rats [1]; 1 μg/kg i.v., anaesthetized rats): much greater hypotension in SHR than in WKY | CB1 receptor coupling efficiency, HU210-stimulated GTPγS labeling (CB1 receptor): dramatically increased
